Results: patent US7169580B1, “Protein having PGE2 synthase activity and use thereof” (Chugai Seiyaku Kabushiki Kaisha, priority 2000, dated 2007)
Changes are numbered by the printed parent chain. Entries after “also recorded” stand apart in the source; their conditions may differ.

What was measured:
Format in all cases: biochemical
PGES-1 = molecular target: T1, PGES-1 (Homo sapiens, UniProt Q15185); assay: PGES activity in lysate of HEK293 cells transfected with PGES-1 cDNA; details: lysate of HEK293 cells transfected with PGES-1, coexistence of CDNB
T1 construct: the cDNA of full-length human progesterone receptor complex component protein p23 was isolated by RT-PCR; expressed in transfected cells; host or cells: HEK293
T1 sequence (Q15185 1-160): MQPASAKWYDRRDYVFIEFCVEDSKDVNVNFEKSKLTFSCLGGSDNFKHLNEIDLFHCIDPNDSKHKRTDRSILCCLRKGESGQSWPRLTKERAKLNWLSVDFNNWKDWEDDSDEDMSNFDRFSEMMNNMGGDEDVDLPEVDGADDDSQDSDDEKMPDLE
Procedure: (§1) PGES activity was measured as follows: Cells suspended in 20 mmol/L Tris-hydrochloride buffer (pH 7.4) were homogenized using ultrasonic homogenizer (Branson Sonifier Model 200) and centrifuged at 800×g for 5 minutes at 4° C., and the supernatant was used as the cell lysate in the following. 0.5 μg of PGH2 was added to the lysate, which was suspended with 0.1 mol/L Tris-hydrochloride buffer (pH 8.0) containing 1 mmol/L GSH, with a protein content of 10 μg, was incubated for 30 seconds at 24° C., and then 8 mmol/L FeCl2 was added to terminate the reaction. The amount of produced PGE2 was measured by Enzyme Immunoassay Kit (Cayman), and PGES activity was expressed as the amount of PGE2 produced per 30 seconds, per 10 μg of protein (ng/30 sec/10 μg protein).
Peptide mapping of PGES-1 protein was carried out using V8 protease, and 3 fragments among the peptide fragments were analyzed by N-terminal amino acid sequence analyzer to determine the partial amino acid sequence thereof. According to GenBank database search with one of these amino acid sequences, the sequence completely matched to a portion of a known sequence reported as the human progesterone receptor complex component protein p23 (Johnson, J L et al., Mol. Cell. Biol., 14:1956–63, 1994). […] Thus, the cDNA was confirmed to encode the desired PGES.

[1] = molecular target: T2, PGES activity of peak C (PGES-1) (Rattus norvegicus, UniProt P83868); assay: PGES activity of Superdex 200 gel filtration fractions of rat brain soluble fraction; details: Superdex 200 peak C (approximately 50 kDa), in contrast to peaks A and B
T2 construct: from tissue; host or cells: brain of LPS-administered rat: 100,000 x g supernatant, 60-80% ammonium sulfate, DEAE-Sephacel, Superdex 200 peak C
T2 sequence (P83868 1-160): T1 sequence (Q15185 1-160) with N128D, N129H
Procedure: as §1
150 μg/kg body LPS (Salmonella minnesota: Re595) was administered intravenously from rat tail. Rat brain was removed 2 days after the injection and was homogenized using Potter's homogenizer at 4° C. […]
A protein of a molecular weight of about 27 kDa, corresponding with the PGES activity (PGES-1), was obtained by SDS electrophoretic analysis of peak C (FIG. 3, bottom). The production of this protein was predicted to elevate in response to inflammatory stimulus due to the fact that large amount of the protein was detected in LPS-administered rats than in normal rats.

PGES-2 = molecular target: T3, PGES-2 (Homo sapiens, UniProt O14684); assay: PGES activity in HEK293 cells transfected with PGES-2; details: HEK293 cells transfected with PGES-2, coexistence of CDNB
T3 construct: expressed in transfected cells; host or cells: HEK293
T3 sequence (O14684 1-152): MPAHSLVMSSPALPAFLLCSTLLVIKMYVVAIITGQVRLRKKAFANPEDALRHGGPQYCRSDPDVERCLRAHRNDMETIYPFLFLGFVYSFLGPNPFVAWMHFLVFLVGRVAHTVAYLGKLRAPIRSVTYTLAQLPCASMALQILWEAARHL
Procedure: as §1

O=[N+]([O-])c1ccc(Cl)c([N+](=O)[O-])c1 [CDNB, 1-chloro-2,4-dinitrobenzene]
effect of CDNB on GSH-dependent PGES activity of recombinant PGES-1 (PGES-1): CDNB sensitive; also recorded: suppressed
effect of CDNB on PGES activity of peak C [1]: strongly inhibited
effect of CDNB on GSH-dependent PGES activity of recombinant PGES-2 (PGES-2): CDNB insensitive; also recorded: not suppressed
